Columns and labels:
[1] = test system: carrageenan foot edema; assay: Rat Carrageenan Foot Pad Edema Test; type: in vivo, Male Sprague-Dawley rats; conditions: @ 30mg/kg body weight; dosed orally one hour before carrageenan; foot volume three hours after injection
[2] = Analgesia (Table I; method not described); type: in vivo; conditions: @ 30mg/kg body weight
[3] = molecular target: COX-1 (Homo sapiens, UniProt P23219); type: biochemical, human or murine
Chain of COX-1 (P23219 24-599): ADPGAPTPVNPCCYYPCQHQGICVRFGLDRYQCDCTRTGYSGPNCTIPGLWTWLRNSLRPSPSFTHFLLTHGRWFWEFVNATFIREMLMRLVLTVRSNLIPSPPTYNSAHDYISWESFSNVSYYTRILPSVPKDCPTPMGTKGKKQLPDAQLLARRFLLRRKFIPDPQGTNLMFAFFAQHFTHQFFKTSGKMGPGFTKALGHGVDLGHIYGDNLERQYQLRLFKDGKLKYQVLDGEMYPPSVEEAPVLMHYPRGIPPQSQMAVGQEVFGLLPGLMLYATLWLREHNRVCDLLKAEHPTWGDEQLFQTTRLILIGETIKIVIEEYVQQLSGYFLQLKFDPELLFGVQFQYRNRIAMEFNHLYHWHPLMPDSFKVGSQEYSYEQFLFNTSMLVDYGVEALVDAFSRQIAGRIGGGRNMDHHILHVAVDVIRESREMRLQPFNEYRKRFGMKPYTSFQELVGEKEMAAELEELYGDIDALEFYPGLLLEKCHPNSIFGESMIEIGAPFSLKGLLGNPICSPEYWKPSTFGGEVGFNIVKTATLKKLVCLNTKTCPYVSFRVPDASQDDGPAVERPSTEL

Structure (SMILES) | RAT PAW EDEMA % Inhibition [1] [%] | ANALGESIA % Inhibition [2] [%] | IC50 [3] [µM]
CS(=O)(=O)c1ccc(-n2cccc2-c2ccc(F)cc2)cc1 [Example 8, 2-(4-Fluorophenyl)-1-[4-(methylsulfonyl)phenyl]-1H-pyrrole] | 56 | 47 | –
NS(=O)(=O)c1ccc(-n2cccc2-c2ccc(F)cc2)cc1 [Example 9, 4-[2-(4-Fluorophenyl)-1H-pyrrol-1-yl]benzenesulfonamide] | – | – | 10.4
